One may read the logP as a log measure of how a compound divides between an organic and an aqueous phase. Higher therefore signals a more lipophilic compound. For orientation: chromatographic logP means lipophilicity estimated from chromatographic retention.

Molecules are shown by their SMILES.

We go through 62 molecules from patent publication US7186831B2, “5-halo-2-alkyl[1,2,4]triazolo[1,5-a]pyrimidin-7-amines” (priority 2001, dated 2007).

Tested on in the first data set: not listed separately
As to the kind of experiment: log P by HPLC. The class given is physicochemical. To be noted: EEC directive 79/831 Annex V. A8 by HPLC (gradient method, acetonitrile/0.1% aqueous phosphoric acid).
Consider `Cc1nc2nc(Cl)c(-c3c(F)cccc3Cl)c(NCC3CC3)n2n1` [compound 263], for which the log partition coefficient (logP) came out at 2.95.
In turn, `Fc1ccc(-c2c(Cl)nc3nc(C4CC4)nn3c2N2CCC(C(F)(F)F)CC2)c(F)c1` [compound 515] gave a log partition coefficient (logP) of 4.07.
In the case of `COC(CN(C)c1c(-c2c(F)cccc2F)c(Cl)nc2nc(C)nn12)OC` [compound 334], the logP was 2.55.
Still for that read-out and setting: in the case of `CC(Nc1c(-c2ccc(F)cc2F)c(Cl)nc2nc(C(F)(F)F)nn12)C(F)(F)F` (centres unmarked) [compound 358] it was 3.89; in that of `Cc1nc2nc(Cl)c(-c3ccc(F)cc3F)c(NC3CCCC(C(F)(F)F)C3)n2n1` (centres unmarked) [compound 349], 3.52.
`COCCN(C)c1c(-c2ccc(F)cc2F)c(Cl)nc2nc(C)nn12` [compound 352] came in with a logP of 2.58.
`Fc1cc(F)c(-c2c(Cl)nc3nc(C4CC4)nn3c2N2CCCCC2)c(F)c1` [compound 474] showed a logP of 4.22.
For `Cc1nc2nc(Cl)c(-c3c(F)cccc3F)c(N3CCC(C)CC3)n2n1` [compound 313], the logP worked out at 3.64.
`CCOC(=O)CN(C)c1c(-c2ccc(F)cc2F)c(Cl)nc2nc(C)nn12` [compound 410]: the lipophilicity (logP) is 2.8.
As to `Cc1nc2nc(Cl)c(-c3c(F)cccc3F)c(N3CCC4(CC3)OCCO4)n2n1` [compound 309], the lipophilicity (logP) stood at 2.6.
`CCN(CC(F)(F)F)c1c(-c2c(F)cc(F)cc2F)c(Cl)nc2nc(C)nn12` [compound 380] registered a logP of 3.42.
Molecule `CC(Nc1c(-c2c(F)cccc2Cl)c(Cl)nc2nc(C3CC3)nn12)C(F)(F)F` (centres unmarked) [compound 457] showed a logP of 3.59.
Molecule `Cc1nc2nc(Cl)c(-c3ccccc3F)c(NC3CCC(C(F)(F)F)CC3)n2n1` (centres unmarked) [compound 400] gave a log partition coefficient (logP) of 3.48.
In turn, `CCN(CCC#N)c1c(-c2ccc(F)cc2F)c(Cl)nc2nc(C)nn12` [compound 413] registered a logP of 2.58.
Molecule `Cc1nc2nc(Cl)c(-c3ccccc3F)c(N(C)C)n2n1` [compound 381] came in with a logP of 2.34.
`CCNc1c(-c2ccccc2F)c(Cl)nc2nc(C)nn12` [compound 383] showed a logP of 2.3.
`Cc1cccc(Nc2c(-c3ccc(F)cc3F)c(Cl)nc3nc(C)nn23)c1` [compound 456] registered a logP of 3.
For the molecule `CCCN(CCOC)c1c(-c2ccccc2Cl)c(Cl)nc2nc(C)nn12` [compound 416], the logP is reported as 3.36.
Molecule `Cc1nc2nc(Cl)c(-c3ccc(F)cc3F)c(N3CCC(O)CC3)n2n1` [compound 282] registered a logP of 1.9.
On the same count and under the same terms, in the case of `Cc1nc2nc(Cl)c(-c3ccccc3F)c(NOC(C)(C)C)n2n1` [compound 374] it was 2.75.
On the same count and under the same terms, as for `CC(=O)NC1CCN(c2c(-c3ccc(F)cc3F)c(Cl)nc3nc(C)nn23)CC1` [compound 294], the figure is 1.85; as for `Cc1nc2nc(Cl)c(-c3c(F)cccc3F)c(N3CCC(N(C)C)C3)n2n1` (centres unmarked) [compound 306], 1.18.

The same data set, now with this note: HPLC.
`Oc1nc2nc(C(F)(F)F)nn2c(O)c1-c1c(F)cc(F)cc1F` [Example 832, 2-trifluoromethyl-6-(2,4,6-trifluoro-phenyl)-[1,2,4]triazolo[1,5-a]pyrimidine-5,7-diol]: the chromatographic logP worked out at 0.81.

The same data set, now with this note: HPLC, gradient method, acetonitrile/0.1% aqueous phosphoric acid; EEC directive 79/831 Annex V. A8.
`CCc1nc2nc(Cl)c(-c3c(F)cc(F)cc3F)c(N[C@@H](C)C(F)(F)F)n2n1` [Example 4] had a chromatographic logP of 3.39.
Still for that read-out and setting: in the case of `Fc1cc(F)c(-c2c(Cl)nc3nc(C(F)(F)F)nn3c2NCC(F)(F)F)c(F)c1` [Example 8] it was 3.64.
`C=C(C)CN(C)c1c(-c2c(F)cccc2Cl)c(Cl)nc2nc(C3CC3)nn12` [compound 700] came in with a logP of 4.21.
Still for that read-out and setting: in the case of `CC(C)C(C)Nc1c(-c2ccc(F)cc2Cl)c(Cl)nc2nc(C3CC3)nn12` (racemic) [compound 587] it was 4.25; in that of `Fc1ccc(-c2c(Cl)nc3nc(C(F)(F)F)nn3c2N2CCC(C(F)(F)F)CC2)c(F)c1` [compound 805], 4.43.
On the same count and under the same terms, in the case of `CC1CCN(c2c(-c3ccc(F)cc3Cl)c(Cl)nc3nc(C4CC4)nn23)CC1` [compound 618] it was 4.82.
Regarding `CCN(CC1CCCO1)c1c(-c2ccccc2Cl)c(Cl)nc2nc(C)nn12` (centres unmarked) [compound 239], the logP came out at 3.23.
In turn, `OC1CCCN(c2c(-c3ccc(F)cc3F)c(Cl)nc3nc(C4CC4)nn23)C1` (centres unmarked) [compound 614] registered a logP of 2.57.
Molecule `C=CCN(CC)c1c(-c2c(F)cc(F)cc2F)c(Cl)nc2nc(C)nn12` [compound 157] gave a logP of 3.5.
`CCCCNc1c(-c2ccc(F)cc2F)c(Cl)nc2nc(C3CC3)nn12` [compound 645]: the logP came to 3.6.
In the case of `Cc1nc2nc(Cl)c(-c3c(F)cccc3Cl)c(NC(C)C)n2n1` [compound 256], the log partition coefficient (logP) came out at 2.77.
On to `COC(=O)C1CCN(c2c(-c3ccc(F)cc3F)c(Cl)nc3nc(C4CC4)nn23)CC1` [compound 731], for which the logP is 3.38.
For `Fc1cccc(Cl)c1-c1c(Cl)nc2nc(C3CC3)nn2c1N1CCOCC1` [compound 709], the logP is 3.05.
Take `CCCCN(C)c1c(-c2ccc(F)cc2F)c(Cl)nc2nc(C3CC3)nn12` [compound 671]: the log partition coefficient (logP) amounted to 4.21.
Turning to `CN1CCN(c2c(-c3ccc(F)cc3F)c(Cl)nc3nc(C4CC4)nn23)CC1` [compound 735], the logP is 1.43.
Take `CCCN(Cc1cccs1)c1c(-c2c(F)cccc2F)c(Cl)nc2nc(C)nn12` [compound 570]: the logP worked out at 3.96.
For the molecule `CCc1nc2nc(Cl)c(-c3c(F)cc(F)cc3F)c(N3CC(C)OC(C)C3)n2n1` (centres unmarked) [compound 71], the log partition coefficient (logP) was 3.57.
`Cc1nc2nc(Cl)c(-c3c(F)cccc3F)c(NC(C)C3CCCCC3)n2n1` (centres unmarked) [compound 185] gave a lipophilicity (logP) of 4.
For the molecule `Cc1nc2nc(Cl)c(-c3c(F)cc(F)cc3F)c(NC(C)(C)C(F)(F)F)n2n1` [compound 88], the logP was 3.7.
In the case of `COCCN(C)c1c(-c2c(F)cccc2Cl)c(Cl)nc2nc(C3CC3)nn12` [compound 699], the logP amounted to 3.3.
Same read-out and setting: in the case of `Cc1nc2nc(Cl)c(-c3ccccc3Cl)c(NC3CCCC3)n2n1` [compound 213] it was 3.28.
Molecule `Fc1ccc(-c2c(Cl)nc3nc(C(F)(F)F)nn3c2N2CCCCC2)c(F)c1` [compound 809] gave a logP of 4.45.
On to `CCN(CC1CCCO1)c1c(-c2ccc(F)cc2F)c(Cl)nc2nc(C3CC3)nn12` (centres unmarked) [compound 593], for which the log partition coefficient (logP) was 3.78.
On the same count and under the same terms, in the case of `Cc1nc2nc(Cl)c(-c3c(F)cccc3F)c(NCC3CC3)n2n1` [compound 181] it was 2.62.
For the molecule `CC(Nc1c(-c2ccc(F)cc2F)c(Cl)nc2nc(C(F)(F)F)nn12)C1CCCCC1` (centres unmarked) [compound 557], the log partition coefficient (logP) amounted to 5.12.
`Cc1nc2nc(Cl)c(-c3c(F)cc(F)cc3F)c(N3CCCCN3)n2n1` [compound 692] showed a lipophilicity (logP) of 2.83.
As for `CC(Nc1c(-c2ccc(F)cc2F)c(Cl)nc2nc(C3CC3)nn12)C1CCCCC1` (centres unmarked) [compound 653], the lipophilicity (logP) amounted to 4.84.
For `Cc1nc2nc(Cl)c(-c3ccccc3Cl)c(N3CCCCC3)n2n1` [compound 233], the logP is given as 3.48.
Consider `Cc1nc2nc(Cl)c(-c3c(F)cccc3Cl)c(N3CCCCC3)n2n1` [compound 254], for which the logP came to 3.55.
Consider `Cc1nc2nc(Cl)c(-c3ccc(F)cc3Cl)c(NCC(F)(F)F)n2n1` [compound 766], for which the logP was determined as 2.8.
`CCc1nc2nc(Cl)c(-c3c(F)cc(F)cc3F)c(N3CCC(C(F)(F)F)CC3)n2n1` [compound 2] yielded a log partition coefficient (logP) of 3.99.
Molecule `CCNc1c(-c2c(F)cc(F)cc2F)c(Cl)nc2nc(CC)nn12` [compound 91] yielded a log partition coefficient (logP) of 2.78.
For `Cc1nc2nc(Cl)c(-c3c(F)cccc3F)c(NC(C)C)n2n1` [compound 174], the logP worked out at 2.52.
Same read-out and setting: in the case of `CCN(CC)c1c(-c2c(F)cccc2F)c(Cl)nc2nc(C)nn12` [compound 175] it was 2.98; in that of `CC(C)CN(C)c1c(-c2ccc(F)cc2F)c(Cl)nc2nc(C(F)(F)F)nn12` [compound 544], 4.54; in that of `CCN(CCC#N)c1c(-c2ccc(F)cc2F)c(Cl)nc2nc(C3CC3)nn12` [compound 725], 3.07.
The same measure, in the same setting: as for `CCN(CCN(C)C)c1c(-c2c(F)cc(F)cc2F)c(Cl)nc2nc(C)nn12` [compound 156], the figure is 1.59; as for `Cc1nc2nc(Cl)c(-c3c(F)cc(F)cc3F)c(N(C)Cc3ccco3)n2n1` [compound 153], 3.22; as for `CCN(CC)c1c(-c2ccccc2Cl)c(Cl)nc2nc(C)nn12` [compound 242], 3.24.

The test system of the next data set is Podosphaera leucotricha. In words: Podosphaera test (apple)/protective. To be noted: protective, application rate 100 g/ha, evaluation 10 days after inoculation. The class given is in vivo. The method, then: Podosphaera Test (Apple)/Protective • Solvent: 24.5 parts by weight of acetone • 24.5 parts by weight of dimethylacetamide • Emulsifier: 1 part by weight of alkylaryl polyglycol ether
To produce a suitable preparation of active compound, 1 part by weight of active compound is mixed with the stated amounts of solvent and emulsifier and the concentrate is diluted with water to the desired concentration.
To test for protective activity, the young plants are sprayed with the active compound preparation at the application rate indicated. After the spray coating has dried on, the plants are inoculated with an aqueous spore suspension of the apple mildew causative organism Podosphaera leucotricha. The plants are then placed in a greenhouse at about 23° C. and at a relative humidity of about 70%.
Evaluation is made 10 days after inoculation. 0% denotes an efficacy corresponding to that of the control, while an efficacy of 100% denotes that no infestation is observed.
In the case of `Fc1cc(F)c(-c2c(Cl)nc3nc(C(F)(F)F)nn3c2NCC(F)(F)F)c(F)c1` [Example 8], the Efficacy in % is 100%.

A further data set has as its system Sphaerotheca fuliginea. In words: Spaerotheca test (cucumber)/protective. Type of data set: in vivo. Particulars: protective, application rate 750 g/ha, evaluation 7 days after inoculation. Here is the method: Spaerotheca Test (Cucumber)/Protective • Solvent: 49 parts by weight of N,N-dimethylformamide • Emulsifier: 1 part by weight of alkylaryl polyglycol ether To produce a suitable preparation of active compound, 1 part by weight of active compound is mixed with the stated amounts of solvent and emulsifier and the concentrate is diluted with water to the desired concentration. To test for protective activity, the young cucumber plants are sprayed with the active compound preparation at the application rate indicated. 1 day after treatment, the plants are inoculated with a spore suspension of Sphaerotheca fuliginea. The plants are then placed in a greenhouse at a temperature of 23° C. and at a relative humidity of 70%. Evaluation is made 7 days after inoculation. 0% denotes an efficacy corresponding to that of the control, while an efficacy of 100% denotes that no infestation is observed.
For `CCc1nc2nc(Cl)c(-c3c(F)cc(F)cc3F)c(N[C@@H](C)C(F)(F)F)n2n1` [Example 4], the Efficacy in % is 93%.
The same measure, in the same setting: in the case of `Fc1cc(F)c(-c2c(Cl)nc3nc(C(F)(F)F)nn3c2NCC(F)(F)F)c(F)c1` [Example 8] it was 100%.
